The values that follow come from patent US10538491B2, “4,5-substituted picolinamide and picolinonitrile metabotropic glutamate receptor 2 negative allosteric modulators” (Vanderbilt University, priority 2015, dated 2020).

The subject of experiment [1] is group II mGlu receptors (mGlu2 and mGlu3). The conditions noted are these: cited from earlier work.
A further experiment has as its target rat mGlu2 (Rattus norvegicus (Rat), UniProt P31421). The experiment in a line: mGlu2 Ca2+ flux assay. It is filed as cell-based. The conditions noted are these: for IC50: Gα15 HEK293 cells stably expressing rat mGlu2, glutamate EC80, >10,000 = no plateau, >30,000 = no measurable activity; for remaining activity at 30 µM: read-out: rat mGlu2 Glu max. A digest of the protocol: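 Gα15 HEK293 cells stably expressing rat mGlu2, Fluo-4 loaded; compound added, then glutamate at EC20 after 2.3 min and EC80 afterward, calcium flux read as F/F0. Peak amplitude around EC80 addition normalized to glutamate max; IC50 by unconstrained 4-parameter fit, top concentration 30 μM.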
(In general: A change in cytosolic calcium serves as a functional read-out for many receptors and channels.)

Experiment [2] deals with Aβ-induced neurodegeneration. The note with it: cited from earlier work.
The test system of experiment [3] is central mGlu2 and mGlu3 receptors. The note with it: in vivo; cited from earlier work.
The subject of another experiment is mice. The note with it: cited from earlier work.
In the next experiment the test system is Helpless (H) mice. The note with it: cited from earlier work; for activity in the tail suspension test: Helpless (H) mice.
For another experiment, the system named is rat. The conditions noted are these: rat FST, normal animals; cited from earlier work.
The next experiment has as its system C57Bl6/J mice. The note with it: FST; cited from earlier work.
The next experiment relates to mouse. The conditions noted are these: mouse TST, normal animals; cited from earlier work.
Experiment [4] deals with olfactory bulbectomized rats. The conditions noted are these: repeated administration for 14 days; cited from earlier work.
For experiment [5], the system named is social isolation reared mice. The note with it: cited from earlier work.
For experiment [6] the following is noted: treatment for 7 days; cited from earlier work.
For experiment [7] the following is noted: CFS model; cited from earlier work.
Where [8] appears, read: amplitude of response in the presence of 30 μM test compound as percentage of maximal response to glutamate.

Where two headings read alike, the source gives them in different places.

Sequence of rat mGlu2 (P31421 19-872): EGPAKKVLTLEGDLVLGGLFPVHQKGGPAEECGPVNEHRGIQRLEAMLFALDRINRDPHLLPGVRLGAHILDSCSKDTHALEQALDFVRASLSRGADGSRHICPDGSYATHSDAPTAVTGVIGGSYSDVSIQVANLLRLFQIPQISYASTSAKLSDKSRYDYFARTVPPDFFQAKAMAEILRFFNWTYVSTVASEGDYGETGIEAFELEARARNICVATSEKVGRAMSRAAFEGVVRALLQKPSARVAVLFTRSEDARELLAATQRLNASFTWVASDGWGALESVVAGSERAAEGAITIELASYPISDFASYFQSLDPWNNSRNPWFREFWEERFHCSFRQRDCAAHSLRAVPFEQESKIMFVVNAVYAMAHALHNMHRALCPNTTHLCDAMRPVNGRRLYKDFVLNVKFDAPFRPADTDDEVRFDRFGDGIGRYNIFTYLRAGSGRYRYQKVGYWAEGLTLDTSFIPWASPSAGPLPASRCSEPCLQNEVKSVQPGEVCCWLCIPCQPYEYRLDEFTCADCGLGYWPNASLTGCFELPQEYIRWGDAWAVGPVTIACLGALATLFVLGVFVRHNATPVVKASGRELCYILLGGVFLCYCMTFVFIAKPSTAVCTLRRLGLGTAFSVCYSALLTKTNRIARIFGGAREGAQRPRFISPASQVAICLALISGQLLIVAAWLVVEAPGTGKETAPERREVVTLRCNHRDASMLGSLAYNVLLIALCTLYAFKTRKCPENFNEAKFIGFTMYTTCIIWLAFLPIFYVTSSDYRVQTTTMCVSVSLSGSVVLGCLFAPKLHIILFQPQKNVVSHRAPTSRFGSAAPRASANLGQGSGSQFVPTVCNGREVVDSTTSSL

On to `CCCCCCCOC(=O)[C@@]1(F)[C@@H]2C[C@@H](OCc3ccc(Cl)c(Cl)c3)[C@@](N)(C(=O)O)[C@@H]21` [BCI-838], for which the “duration of inhibition of group II mGlu receptors by brain concentration of active metabolite BCI-632” value in experiment [1] (once-daily dosing of oral prodrug) is 22 h. The “learning and memory impairment” value in [1] (three months of treatment, Dutch APP transgenic mice) is “reversed Dutch APP transgene-associated learning and memory impairment”. The “levels of monomeric and oAβ peptides in hippocampus and cortex” value in experiment [1] (three months of treatment, two AD mouse models) is “decreased the levels of monomeric and oAβ peptides”. Moreover, the anxiolytic effects entry in experiment [1] (three months of treatment) is given as “anxiolytic effects”. Besides, the “hippocampal progenitor cell proliferation” value in experiment [1] (wild-type and Alzheimer's diseased mice, 3 months) is on record as “stimulated hippocampal progenitor cell proliferation”.

What is called IC50 is the concentration that gives 50% inhibition. Low readings indicate greater potency in that assay, high ones weaker potency in that assay. As to `N#Cc1cccc(COc2cnc(C(N)=O)cc2-c2ccc(F)cc2)c1F` [Compound 149, 5-((3-cyano-2-fluorobenzyl)oxy)-4-(4-fluorophenyl)picolinamide], half-maximal inhibition at rat mGlu2 (IC50) was put at 254 nM. In addition, the remaining activity at 30 µM at rat mGlu2 (setting [8]) amounted to 1.66%.

The compound `N#Cc1ccccc1COc1cnc(C(N)=O)cc1-c1ccc(F)cc1` [Compound 150, 5-((2-cyanobenzyl)oxy)-4-(4-fluorophenyl)picolinamide] yielded a half-maximal inhibitory concentration (IC50) on rat mGlu2 of 98 nM. The remaining activity at 30 µM on rat mGlu2 (setting [8]) came out at 1.14%.

In turn, `N#Cc1cncc(COc2cnc(C(N)=O)cc2-c2ccc(F)cc2)c1` [Compound 151] gave an IC50 on rat mGlu2 of 683 nM. Moreover, the “rat mGlu2 Glu max” value at rat mGlu2 (setting [8]) came to 2.05%.

For the compound `N#Cc1cccc(OCCOc2cnc(C(N)=O)cc2-c2ccc(F)cc2)c1` [Compound 152, 5-(2-(3-cyanophenoxy)ethoxy)-4-(4-fluorophenyl)picolinamide], the IC50 against rat mGlu2 was determined as 1220 nM. The remaining activity at 30 µM on rat mGlu2 (setting [8]) was 1.44%.

`N#Cc1cc(F)cc(OCCOc2cnc(C(N)=O)cc2-c2ccc(F)cc2)c1` [Compound 153, 5-(2-(3-cyano-5-fluorophenoxy)ethoxy)-4-(4-fluorophenyl)picolinamide] had an IC50 against rat mGlu2 of 1370 nM. The remaining activity at 30 µM on rat mGlu2 (setting [8]) turned out to be 1.58%.

`N#Cc1cc(OCCOc2cnc(C(N)=O)cc2-c2ccc(F)cc2)ccc1F` [Compound 154, 5-(2-(3-cyano-4-fluorophenoxy)ethoxy)-4-(4-fluorophenyl)picolinamide] registered a concentration for half-maximal inhibition (IC50) against rat mGlu2 of 1390 nM. Besides, on rat mGlu2 (setting [8]), the remaining activity at 30 µM was 4.19%.

On rat mGlu2, `N#Cc1cccc(OCCOc2cnc(C(N)=O)cc2-c2ccc(F)cc2)c1F` [Compound 155, 5-(2-(3-cyano-2-fluorophenoxy)ethoxy)-4-(4-fluorophenyl)picolinamide] yielded a half-maximal inhibitory concentration (IC50) of 528 nM. Further, on rat mGlu2 (setting [8]), the remaining activity at 30 µM amounted to 1.07%.

With `N#Cc1ccc(F)c(OCCOc2cnc(C(N)=O)cc2-c2ccc(F)cc2)c1` [Compound 156, 5-(2-(5-cyano-2-fluorophenoxy)ethoxy)-4-(4-fluorophenyl)picolinamide], half-maximal inhibition on rat mGlu2 (IC50) was put at 4230 nM. Also, the remaining activity at 30 µM on rat mGlu2 (setting [8]) is -21.7%.

Turning to `N#Cc1cncc(OCCOc2cnc(C(N)=O)cc2-c2ccc(F)cc2)c1` [Compound 157, 5-(2-((5-cyanopyridin-3-yl)oxy)ethoxy)-4-(4-fluorophenyl)picolinamide], on rat mGlu2, the IC50 came to 691 nM. Also, the remaining activity at 30 µM at rat mGlu2 (setting [8]) was 4.33%.

Regarding `N[C@](CC1c2ccccc2Oc2ccccc21)(C(=O)O)[C@H]1C[C@@H]1C(=O)O` [LY341495], the “effect on LY566332-amplified Aβ-induced neurodegeneration” value in experiment [2] is listed as “prevented”. The “hypolocomotor effect of mGlu2/3 agonist (LY379268)” value in experiment [3] is “achieved the same result”. The marble-burying behavior result in the experiment with mice is given as “significantly reduce marble-burying behavior”. Moreover, the “activity in the tail suspension test” value with Helpless (H) mice was “active”. The “antidepressant effect in helpless mice” value with Helpless (H) mice (acute administration) was “potent antidepressant effect”. Further, the antidepressant-like effects entry in the experiment on rat and with mouse was “Antidepressant-like effects” each time. Moreover, the immobility time entry with C57Bl6/J mice is reported as “dose-dependently reduced immobility time”.

`CCS(=O)(=O)N(Cc1cccnc1)c1cccc(-c2ccc(C#N)cc2)c1` [LY566332]: the Aβ-induced neurodegeneration entry in experiment [2] is given as “amplified Aβ-induced neurodegeneration”.

Take `N[C@]1(C(=O)O)[C@H]2[C@@H](C[C@H]1OCc1ccc(Cl)c(Cl)c1)[C@]2(F)C(=O)O` [MGS0039]: in experiment [4], the “hyperactivity in the open field test” value is reported as “attenuated the hyperactivity” and the “learning deficit in the passive avoidance test” value is reported as “attenuated the learning deficit”. In addition, the “immobility in the FST” value in experiment [5] is given as “reversed the increased immobility”. Besides, in the experiment on mice, the marble-burying behavior entry is listed as “reduced marble-burying behavior” and the spontaneous locomotor activity result is on record as “no significant change”. Moreover, the “number of escape failures” value in experiment [6] is “significantly reduced the number of escape failures”. Moreover, in [7], the freezing behavior result is reported as “significantly decreased freezing behavior”. The antidepressant-like effects entry in the experiment on rat is recorded as “Antidepressant-like effects”. In the experiment with mouse, the antidepressant-like effects result was “Antidepressant-like effects”.

`Cc1cc(-c2cccc(C3=Nc4cc(C)c(C(F)(F)F)cc4NC(=O)C3)c2)cc(C)n1` [RO4491533]: the “hypolocomotor effect of mGlu2/3 agonist (LY379268)” value in experiment [3] is listed as “reversed the hypolocomotor effect”. Moreover, the “activity in the tail suspension test” value with Helpless (H) mice is given as “active”. The immobility time entry in the experiment on C57Bl6/J mice was “dose-dependently reduced immobility time”.

Consider `CN1C(=O)CN=C(c2ccccc2)c2cc(Cl)ccc21` [diazepam], for which, in experiment [7], the freezing behavior entry is given as “significantly decreased freezing behavior”.

On to `CNCCC(Oc1ccc(C(F)(F)F)cc1)c1ccccc1` (stereo not shown) [fluoxetine], for which the “antidepressant effect in helpless mice” value in the experiment on Helpless (H) mice (chronic (21 days) treatment) was “full antidepressant effect”.
